The source of these data is ChEMBL document CHEMBL1201862, “PubChem BioAssay data set” (2004).

Active and inactive are the calls of the source.

The target in experiment [1] is Fructose-bisphosphate aldolase (Mycobacterium tuberculosis, UniProt P9WQA3). As to the kind of experiment: Fluorescence-based biochemical high throughput dose response assay for inhibitors of the fructose-bisphosphate aldolase (FBA) of M. tuberculosis. The format is functional.
The next experiment addresses Mu-type opioid receptor (Homo sapiens, UniProt P35372). The format is functional, cell-based.
Experiment [2] deals with 5-hydroxytryptamine receptor 2A (Mus musculus, UniProt P35363). The format is functional, cell-based.
5-hydroxytryptamine receptor 2A, sequence (P35363 whole entry): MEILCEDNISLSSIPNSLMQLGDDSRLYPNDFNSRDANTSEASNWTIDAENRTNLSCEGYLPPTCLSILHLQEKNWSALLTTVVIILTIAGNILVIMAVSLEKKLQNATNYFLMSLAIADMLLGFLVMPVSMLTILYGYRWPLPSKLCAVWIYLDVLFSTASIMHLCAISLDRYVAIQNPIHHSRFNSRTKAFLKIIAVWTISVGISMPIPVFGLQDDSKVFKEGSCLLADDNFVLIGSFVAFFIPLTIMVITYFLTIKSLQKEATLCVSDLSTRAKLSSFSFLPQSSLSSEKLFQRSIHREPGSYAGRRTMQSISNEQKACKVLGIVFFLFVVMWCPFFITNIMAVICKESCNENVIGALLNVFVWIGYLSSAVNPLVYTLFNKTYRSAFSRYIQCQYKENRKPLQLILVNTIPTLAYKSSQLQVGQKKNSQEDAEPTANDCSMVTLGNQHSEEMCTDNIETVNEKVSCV
Experiment [3] addresses T1, Sentrin-specific protease 1 (Homo sapiens, UniProt Q9P0U3).
T1 sequence (Q9P0U3 whole entry): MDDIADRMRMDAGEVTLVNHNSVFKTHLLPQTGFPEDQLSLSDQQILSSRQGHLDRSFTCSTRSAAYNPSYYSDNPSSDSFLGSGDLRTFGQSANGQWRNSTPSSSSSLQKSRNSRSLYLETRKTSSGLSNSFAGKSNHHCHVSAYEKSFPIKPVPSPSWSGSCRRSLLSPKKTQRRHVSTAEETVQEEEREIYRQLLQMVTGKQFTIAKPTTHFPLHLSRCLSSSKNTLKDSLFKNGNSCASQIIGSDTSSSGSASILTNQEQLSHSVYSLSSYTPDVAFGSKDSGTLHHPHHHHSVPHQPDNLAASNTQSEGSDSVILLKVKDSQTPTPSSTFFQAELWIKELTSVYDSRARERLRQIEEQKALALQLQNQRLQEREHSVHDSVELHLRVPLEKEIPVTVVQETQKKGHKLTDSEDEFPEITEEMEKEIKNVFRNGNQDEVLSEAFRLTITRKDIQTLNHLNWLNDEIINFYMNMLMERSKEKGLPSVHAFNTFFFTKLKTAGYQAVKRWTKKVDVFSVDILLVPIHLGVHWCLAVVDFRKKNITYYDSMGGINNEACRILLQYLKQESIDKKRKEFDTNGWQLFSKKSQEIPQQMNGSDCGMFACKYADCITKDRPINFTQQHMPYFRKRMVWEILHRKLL
As to the kind of experiment: Dose response confirmation of small molecule inhibitors of the catalytic domain of the SUMO protease, SENP1 in a FRET assay. The format is functional. Conditions: read-out: IC50_Mean.

The target of experiment [4] is T1, Sentrin-specific protease 1. In words: SENP1 catalytic domain blockers, concentration series – biochemical, kinetic FRET, dose response (AID 651697). The format is functional. The settings on record: read-out: IC50_Mean.
Another experiment relates to INS1. In words: INS-1E survival protection against cytokine death – cell-based, luminescence, retest, dose response (AID 449756).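 Also: cell death triggered by IL-1 beta plus TNF-alpha plus IFN-gamma mixture; protective hits raise ATP signal compared with cytokine alone wells.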 The format is functional. Conditions: Rattus norvegicus.
The target of experiment [5] is T2, Rac GTPase-activating protein 1 (Homo sapiens, UniProt Q9H0H5).
T2 sequence (Q9H0H5 whole entry): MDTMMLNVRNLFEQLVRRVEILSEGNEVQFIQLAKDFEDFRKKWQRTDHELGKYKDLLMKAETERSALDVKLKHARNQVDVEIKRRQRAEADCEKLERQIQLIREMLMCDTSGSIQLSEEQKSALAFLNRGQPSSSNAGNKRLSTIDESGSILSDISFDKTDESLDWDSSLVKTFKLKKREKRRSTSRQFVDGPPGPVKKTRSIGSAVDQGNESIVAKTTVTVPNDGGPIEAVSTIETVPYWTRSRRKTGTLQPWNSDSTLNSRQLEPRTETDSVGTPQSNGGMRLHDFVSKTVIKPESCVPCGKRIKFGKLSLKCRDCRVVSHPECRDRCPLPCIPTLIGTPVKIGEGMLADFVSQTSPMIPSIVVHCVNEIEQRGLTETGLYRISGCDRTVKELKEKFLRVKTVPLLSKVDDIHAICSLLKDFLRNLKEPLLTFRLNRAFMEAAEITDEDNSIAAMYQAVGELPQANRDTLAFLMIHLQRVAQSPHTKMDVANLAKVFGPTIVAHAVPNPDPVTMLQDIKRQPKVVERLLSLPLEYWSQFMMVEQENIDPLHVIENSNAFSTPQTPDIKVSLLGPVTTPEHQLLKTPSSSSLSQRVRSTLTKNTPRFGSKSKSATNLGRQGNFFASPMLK
As to the kind of experiment: blockers of MgcRacGAP-driven Rac1 GTP hydrolysis – biochemical, ADP Hunter fluorescence, primary and confirmatory, confirmation (AID 624330). The format is functional.

Experiment [6] can be described thus: viability loss in HeLa cells – cytotoxicity control for MgcRacGAP inhibitor project, dose response (AID 624300). The format is functional.
The target in experiment [7] is T3, Trace amine-associated receptor 1 (Homo sapiens, UniProt Q96RJ0).
T3 sequence (Q96RJ0 whole entry): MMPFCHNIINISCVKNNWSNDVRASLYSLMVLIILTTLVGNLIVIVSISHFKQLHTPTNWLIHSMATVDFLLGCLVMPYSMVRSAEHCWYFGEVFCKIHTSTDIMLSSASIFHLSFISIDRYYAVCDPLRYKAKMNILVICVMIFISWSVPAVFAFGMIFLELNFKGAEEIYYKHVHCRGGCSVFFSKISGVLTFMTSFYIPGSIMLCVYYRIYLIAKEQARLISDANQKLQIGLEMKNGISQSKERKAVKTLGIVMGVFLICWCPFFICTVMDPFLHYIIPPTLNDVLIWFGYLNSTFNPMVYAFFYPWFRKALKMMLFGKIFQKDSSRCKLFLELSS
As to the kind of experiment: Counterscreen for agonists of the human trace amine associated receptor 1 (hTAAR1): Fluorescence-based cell-based high throughput dose response assay to identify hTAAR1 agonist that also desensitize TAAR1 receptor response. The format is functional.

Experiment [8] addresses T3, Trace amine-associated receptor 1. In words: Fluorescence-based cell-based high throughput dose response assay to identify agonists of the human trace amine associated receptor 1 (TAAR1). The format is functional.
The nature of experiment [9]: cells. The format is functional, cell-based.
A short description of experiment [10]: cells. The format is functional, cell-based. This is another data set of the same source.
The nature of experiment [11]: viability loss in CEM21 cells – cell-based, CellTiter-Glo luminescence, cherry-picked, cytotoxicity control for viral fusion inhibitor project, dose response (AID 652042).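 Also: potency for signal decrease meaning cytotoxicity.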 The format is functional. On the technique in general: Cellular ATP, detected with luciferase, serves as a proxy for viable cell number.
Experiment [12] can be described thus: blockers of HIV-1 envelope-mediated cell-cell fusion – cherry-pick, dose response (AID 652057). The format is functional, cell-based.
The nature of experiment [13]: A Cell Based Secondary Assay To Explore Cytotoxicity of Compounds that Sensitize Mycobacterium Tuberculosis to Beta-Lactam Antibiotics. The format is functional.
In the next experiment the target is T4, Streptokinase A (Streptococcus pyogenes serotype M1, UniProt P10520).
T4 sequence (P10520 whole entry): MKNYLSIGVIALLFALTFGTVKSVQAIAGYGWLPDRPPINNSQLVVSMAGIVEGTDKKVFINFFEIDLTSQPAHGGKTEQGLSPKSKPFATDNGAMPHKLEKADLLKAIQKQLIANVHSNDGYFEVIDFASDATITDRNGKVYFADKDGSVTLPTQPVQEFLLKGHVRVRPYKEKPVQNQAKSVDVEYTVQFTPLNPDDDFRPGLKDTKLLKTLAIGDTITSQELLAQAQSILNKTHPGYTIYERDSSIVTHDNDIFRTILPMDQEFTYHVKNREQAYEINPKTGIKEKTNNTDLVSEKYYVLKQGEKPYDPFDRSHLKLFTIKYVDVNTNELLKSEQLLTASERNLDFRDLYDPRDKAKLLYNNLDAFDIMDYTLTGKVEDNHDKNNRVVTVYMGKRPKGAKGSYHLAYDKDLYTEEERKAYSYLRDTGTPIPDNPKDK
In words: viability-normalized secreted streptokinase activity reduction – plasminogen activation absorbance, OD405, dose response (AID 1914).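 Also: secreted streptokinase activity via plasminogen activation per viability signal from cell pellet.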 The format is functional, Streptococcus pyogenes M1 GAS.

Experiment [14] concerns Streptococcus sp. 'group A'. As to the kind of experiment: Streptococcus pyogenes SK(-)GAS viability under kanamycin – luminescence, BacTiterGlo, confirmation, counter-screen for streptokinase expression inhibitor project, dose response (AID 1900). The format is functional, organism-based. In general terms: The purpose of a counterscreen is to sort out artefacts and off-target activity.

Another experiment deals with Streptococcus. In words: GAS UMAA2166 growth inhibition – luminescence, BacTiterGlo, counter-screen for streptokinase expression inhibitor project, dose response (AID 1915).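 Also: potency for reduction of bacterial viability or growth.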 The format is functional, organism-based.
Another experiment concerns the target T5, Cysteine protease ATG4B (Homo sapiens, UniProt Q9Y4P1).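 Also: Fluorescence-based dose-response confirmation assay measuring inhibition of ATG4B activity.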
T5 sequence (Q9Y4P1 whole entry): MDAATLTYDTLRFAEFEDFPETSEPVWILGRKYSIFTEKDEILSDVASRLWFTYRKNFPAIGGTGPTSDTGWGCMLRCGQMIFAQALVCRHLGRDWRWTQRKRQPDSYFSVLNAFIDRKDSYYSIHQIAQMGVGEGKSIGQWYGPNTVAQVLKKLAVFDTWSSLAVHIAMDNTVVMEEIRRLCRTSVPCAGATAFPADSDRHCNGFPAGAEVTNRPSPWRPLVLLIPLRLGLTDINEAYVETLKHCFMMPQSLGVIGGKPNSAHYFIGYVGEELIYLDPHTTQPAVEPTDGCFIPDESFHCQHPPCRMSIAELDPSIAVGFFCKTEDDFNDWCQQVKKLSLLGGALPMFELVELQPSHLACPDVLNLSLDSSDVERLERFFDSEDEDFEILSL
The format is functional.

In a further experiment the target is T6, Cytochrome P450 1A2 (Homo sapiens, UniProt P05177).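 Also: PubChem cytochrome P450 panel assay, CYP1A2 panel member.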
T6 sequence (P05177 whole entry): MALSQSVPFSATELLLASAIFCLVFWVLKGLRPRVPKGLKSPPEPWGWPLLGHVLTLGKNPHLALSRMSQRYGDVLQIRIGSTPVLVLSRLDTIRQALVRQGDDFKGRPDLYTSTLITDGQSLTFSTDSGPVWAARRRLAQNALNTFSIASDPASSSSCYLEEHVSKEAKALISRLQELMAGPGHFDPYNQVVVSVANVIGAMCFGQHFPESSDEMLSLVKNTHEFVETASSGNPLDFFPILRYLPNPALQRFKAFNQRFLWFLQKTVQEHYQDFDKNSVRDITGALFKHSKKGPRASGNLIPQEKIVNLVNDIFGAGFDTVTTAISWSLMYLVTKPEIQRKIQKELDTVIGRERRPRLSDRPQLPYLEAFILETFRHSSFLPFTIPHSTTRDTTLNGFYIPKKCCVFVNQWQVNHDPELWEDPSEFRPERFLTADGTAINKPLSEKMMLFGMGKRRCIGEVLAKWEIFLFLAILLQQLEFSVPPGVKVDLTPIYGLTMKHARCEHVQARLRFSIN

In another experiment the target is Phospholipase A2 (Homo sapiens, UniProt P04054). The format is functional.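 Also: confirmatory dose-response counterscreen on phospholipase A2, testing hits that came from an ultra-high-throughput screen for ATG4B inhibitors.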
Phospholipase A2, sequence (P04054 whole entry, the tested form may be a part): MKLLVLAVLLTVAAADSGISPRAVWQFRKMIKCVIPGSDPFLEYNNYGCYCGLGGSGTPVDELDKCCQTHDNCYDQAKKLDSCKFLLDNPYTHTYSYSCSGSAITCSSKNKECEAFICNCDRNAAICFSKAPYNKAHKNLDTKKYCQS
Experiment [15] can be described thus: HIV-1 AD8 envelope cell-cell fusion blockers – cherry-pick, dose response (AID 652062).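 Also: luciferase signal from cell-cell fusion driven by HIV-1 clade B AD8 Env; potency is for inhibitors of fusion seen as a drop in luminescence.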 The format is functional, cell-based.
Experiment [16] in a line: blockers of HIV-1 ZM109 envelope-driven cell-cell fusion – HeLa effector, CEM target cells, luciferase, cherry-pick, dose response (AID 652058).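 Also: luciferase signal from HIV-1 Env mediated cell-cell fusion of effector and target cells.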 The format is functional, cell-based.

Fructose-bisphosphate aldolase, sequence (P9WQA3 whole entry): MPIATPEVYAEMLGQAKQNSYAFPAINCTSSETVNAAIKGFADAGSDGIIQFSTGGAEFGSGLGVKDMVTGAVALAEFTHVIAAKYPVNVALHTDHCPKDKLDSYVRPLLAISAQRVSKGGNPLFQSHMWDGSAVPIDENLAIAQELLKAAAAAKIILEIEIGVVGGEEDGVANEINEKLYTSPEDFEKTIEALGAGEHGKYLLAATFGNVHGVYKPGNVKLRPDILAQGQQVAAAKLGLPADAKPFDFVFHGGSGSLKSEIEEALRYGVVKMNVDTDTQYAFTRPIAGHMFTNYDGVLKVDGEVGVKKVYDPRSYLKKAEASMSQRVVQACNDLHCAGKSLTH
Mu-type opioid receptor, sequence (P35372 whole entry): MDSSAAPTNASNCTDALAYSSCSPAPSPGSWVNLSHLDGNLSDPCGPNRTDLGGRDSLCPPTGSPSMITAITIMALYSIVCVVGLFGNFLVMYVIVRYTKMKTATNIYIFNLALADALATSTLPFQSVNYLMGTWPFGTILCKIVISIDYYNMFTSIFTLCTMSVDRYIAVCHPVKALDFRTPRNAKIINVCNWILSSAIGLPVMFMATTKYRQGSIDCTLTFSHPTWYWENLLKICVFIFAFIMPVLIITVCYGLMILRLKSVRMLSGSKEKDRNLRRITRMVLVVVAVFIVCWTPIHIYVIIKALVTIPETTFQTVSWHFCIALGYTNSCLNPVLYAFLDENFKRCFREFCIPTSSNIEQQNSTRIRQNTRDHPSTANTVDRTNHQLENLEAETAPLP

On to `N#CCCN(C(=O)COc1ccc(F)cc1Br)c1ccccc1F`, for which, in experiment [1], the IC50 is > 9.99 µM (inactive).

The EC50 is the concentration needed to bring the measured effect to its halfway point. With `Cn1c2c(c3ccccc31)CCN(CCCCN1CCN(c3ccccc3)CC1)C2=O`, the EC50 at Mu-type opioid receptor is 92.4 µM (inactive); in [2], 0.0455 µM (active).

In the case of `Cc1ccc2n(n1)c(=O)c(Cc1ccccc1)c([O-])[n+]2-c1ccccc1`, the IC50 in experiment [3] was 12.7 µM (active); in [4], 16.8 µM (active).

What is called AC50 is the midpoint of the concentration-response curve, whichever way the signal moves. A word on the CC50: it is the concentration that lowers cell viability or growth by half. For `Cc1ccc2c(c1)[nH]c1c(N3CCN(Cc4ccccc4)CC3)ncnc12`, the concentration at half-maximal activity (AC50) in the experiment with INS1 is 3.89 µM (active). The IC50 in experiment [5] is 47.8 µM (active). Besides, in experiment [6], the CC50 was 57.9 µM (active).

With `CCOc1ccc(C/C(=N/CCc2ccccc2)C2=C(O)CC(C)(C)CC2=O)cc1OCC`, the IC50 in experiment [7] is 2.84 µM (active); in “cells [10]”, > 29.9 µM (inactive). The EC50 is 0.358 µM (active) in [8] and > 29.9 µM (inactive) in the experiment “cells [9]”.

For the molecule `CCc1nc(N2CCCCC2)c2oc3ccccc3c2n1`, the AC50 in [11] is 41.8 µM (active); in [12], 30.8 µM (active).

In the case of `COc1ccc2oc(C(=O)Nc3nc4ccccc4[nH]3)c(C)c2c1`, the EC50 at Mu-type opioid receptor is 92.5 µM (inactive); at Streptokinase A, > 150 µM (not active); in [2] it was 76.1 µM (inactive); in experiment [14], 2.61 µM (active); in the experiment with Streptococcus, 12 µM (active). The cytotoxic concentration (CC50) in experiment [13] was > 40 µM (active).

In the case of `CC(C)c1ccc2nc3sc(C(=O)N4CCc5ccccc5C4)c(N)c3cc2c1`, the IC50 in experiment [3] was 5.22 µM (active); on Cysteine protease ATG4B, 7.08 µM (active); on Phospholipase A2, 4.83 µM (active); in experiment [4], 2.58 µM (active). Besides, the EC50 at Streptokinase A is 101 µM (active); in experiment [14], 25.6 µM (active); in the experiment with Streptococcus it was > 150 µM (not active). At Cytochrome P450 1A2, the concentration at half-maximal activity (AC50) was 11.2 µM (inconclusive).

Take `COc1ccc2c3c([nH]c2c1)[C@@H](CO)N(C(=O)Nc1cccc(F)c1)CC31CN(S(=O)(=O)c2cccc(C)c2)C1`: the half-maximal activity concentration (AC50) in experiment [11] is 23.1 µM (active); in experiment [15], 24.2 µM (active); in experiment [16], 14.9 µM (active); in experiment [12], 22.7 µM (active).

`CCO[C@@H]1c2c(ccc3ccc(=O)oc23)OC(C)(C)[C@H]1O`: the IC50 in experiment [1] is > 1.11 µM (active).
